Here are results for 20 compounds from patent publication US12098145B2 (Libra Therapeutics, Inc., priority 2022, dated 2024).

One experiment has as its target T1, TRPML1 (Homo sapiens, UniProt Q9GZU1).
T1 construct: expressed in transfected cells; host or cells: HEK T-REx cells stably expressing GCaMP6f and TRPML1
The experiment can be described thus: Cellular TRPML1 assay (FLIPR, GCaMP6f calcium read-out). Format: cell-based. The following applies: HEKT-REx/GCaMP6f/TRPML1 cells, FLIPR TETRA, kinetic response over 300 seconds; read-out: TRPML1 FLIPR pEC50 (converted). A digest of the protocol:
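Read-out is GCaMP6f fluorescence over 300 s after compound addition in Ca2+-free Tyrode's buffer, final DMSO 0.5%, on FLIPR Tetra. Cells are HEK T-REx stably co-expressing the indicator and TRPML1, plated 24 h earlier in Optimem + 0.5% FBS and pre-incubated ~10 min at room temperature.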

A further experiment has as its system TFEB. The experiment is described as follows: TFEB translocation assay (TFEB reporter in U2OS cells, imaging). Format: cell-based. Particulars: Homo sapiens; U2OS cell line with TFEB reporter, 2 hours incubation, nucleus to cytoplasm ratio, normalized to Torin-1; read-out: TFEB Translocation pEC50 (converted). Here is the method:
Example B: TFEB Translocation Assay
Reporter TFEB: the reporter is fused to a sequence of monomeric red fluorescent protein.
The reporter TFEB have been stably expressed in U2OS cell line and used as read-out.
Experiments were performed in 384 MTP well format. Cells were seeded in 384-w at a density of 4000 cells/well in 20 μl/well complete growth medium without antibiotics. Twenty-four hours later, cells were treated with compounds and incubated for further 2 hours. Then the cells were imaged and assayed for the response to various compounds using the reporter for TFEB expressed in the cells as readout.
The experiments were performed in a 384-well format according to the following procedure: • 24 h after seeding, cell culture medium was carefully removed and replaced with 20 μl of Opti-MEM (30′ incubation at 37° C. before compound addition) • Then, cells were incubated with compounds diluted in Opti-MEM+0.015% Tween 80 at the desired concentration, with the reference molecule (agonist) Torin-1 at a top concentration of 1 μM (max signal), and with the other reference molecule (agonist) MLSA-5 at top concentration of 20 μM for 2 hours at 37° C. and 5% CO2. The final percentage of DMSO was 0.5% in all the conditions. • Staining of the nuclei was obtained by incubating the cells with 24 μM/well of Hoechst 3342 in standard Tyrode's buffer for 15 min at RT • Then the cells were fixed with PFA 4% for 30 min at RT • After three washes with standard Tyrode's buffer, samples were acquired by recording two fluorescence emission channels (DS-red and blue) at 20× magnification and with at least 3 fields of view per well in an Operetta CLS microscope (PerkinElmer). • Image analysis was performed by using Harmony software (PerkinElmer). The image analysis involved the following steps: flat-field illumination correction, nuclei segmentation, cytoplasm segmentation and calculation of intensity fluorescence in the cytosol and nuclei compartments. Measurements of signal intensity ratio (nucleus to cytoplasm) was used to obtain information on the effects of compounds on the TFEB translocation. • Data from image analysis measurements were finally loaded and analyzed for normalization and fitting procedures in Genedata Screener© software. Data Analysis
Feature: Mean translocation ratio (mean/well)
Data normalization: Stimulator—Neutral control
The GeneData Screener method we have used, normalizes the median of the Stimulator control wells (Torin-1) to 100% and the median of the Neutral control wells (DMSO) to 0% Activity[%]=100*(x−<Min>)/(<“Max”>−<Min>)

T1 sequence (Q9GZU1 whole entry): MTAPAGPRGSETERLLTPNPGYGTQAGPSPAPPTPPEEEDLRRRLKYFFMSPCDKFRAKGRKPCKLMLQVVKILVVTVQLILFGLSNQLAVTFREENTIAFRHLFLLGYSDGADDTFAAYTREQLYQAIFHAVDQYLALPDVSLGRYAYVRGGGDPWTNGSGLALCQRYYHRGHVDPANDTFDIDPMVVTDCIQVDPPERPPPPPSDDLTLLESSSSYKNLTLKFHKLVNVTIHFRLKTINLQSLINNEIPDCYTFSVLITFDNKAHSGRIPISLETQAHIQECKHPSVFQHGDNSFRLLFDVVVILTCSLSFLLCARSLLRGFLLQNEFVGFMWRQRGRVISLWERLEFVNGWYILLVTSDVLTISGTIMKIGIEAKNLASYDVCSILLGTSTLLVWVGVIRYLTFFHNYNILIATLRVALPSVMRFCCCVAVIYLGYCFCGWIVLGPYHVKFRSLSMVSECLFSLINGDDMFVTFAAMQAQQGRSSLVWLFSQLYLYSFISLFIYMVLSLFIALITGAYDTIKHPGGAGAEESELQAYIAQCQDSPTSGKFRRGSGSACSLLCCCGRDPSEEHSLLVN

Regarding `O=C(Nc1ccc(OC2CCCC2(F)F)c(F)c1)c1nc(N2CCC3(CCC3)C2)oc1CC(F)(F)F` (stereo not shown) [Example 15, N-(4-((2,2-difluorocyclopentyl)oxy)-3-fluorophenyl)-2-(6-azaspiro[3.4]octan-6-yl)-5-(2,2,2-trifluoroethyl)oxazole-4-carboxamide], the EC50 on TRPML1 and in the experiment with TFEB was 0.01 to 1 µM in each case.

Take `O=C(Nc1ccc(OC2CCCC2(F)F)c(F)c1)c1nc(N2CC3(C2)CC(F)(F)C3)oc1CC(F)(F)F` (stereo not shown) [Example 17, 2-(6,6-difluoro-2-azaspiro[3.3]heptan-2-yl)-N-(4-((2,2-difluorocyclopentyl)oxy)-3-fluorophenyl)-5-(2,2,2-trifluoroethyl)oxazole-4-carboxamide]: the EC50 on TRPML1 and with TFEB was 0.01 to 1 µM throughout.

Consider `O=C(Nc1ccc(OC2CCCC2(F)F)c(F)c1)c1nc(N2CCC3(COC3)C2)oc1CC(F)(F)F` (stereo not shown) [Example 19, N-{4-[(2,2-difluorocyclopentyl)oxy]-3-fluorophenyl}-2-{2-oxa-6-azaspiro[3.4]octan-6-yl}-5-(2,2,2-trifluoroethyl)oxazole-4-carboxamide], for which the EC50 at TRPML1 and in the experiment on TFEB was 0.01 to 1 µM each time.

With `CC1(C)CN(c2nc(C(=O)Nc3ccc(OC4CCCC4(F)F)c(F)c3)c(CC(F)(F)F)o2)C1` (stereo not shown) [Example 20, N-(4-((2,2-difluorocyclopentyl)oxy)-3-fluorophenyl)-2-(3,3-dimethylazetidin-1-yl)-5-(2,2,2-trifluoroethyl)oxazole-4-carboxamide], the EC50 at TRPML1 and in the experiment with TFEB was 0.01 to 1 µM each time.

Regarding `O=C(Nc1ccc(OC2CCCC2(F)F)c(F)c1)c1nc(N2CCC3(CC3)C2)oc1CC(F)(F)F` (stereo not shown) [Example 21, N-(4-((2,2-difluorocyclopentyl)oxy)-3-fluorophenyl)-2-(5-azaspiro[2.4]heptan-5-yl)-5-(2,2,2-trifluoroethyl)oxazole-4-carboxamide], the EC50 at TRPML1 and in the experiment with TFEB was 0.01 to 1 µM each time.

With `O=C(Nc1ccc(OC2CCCC2(F)F)c(F)c1)c1nc(N2CCCC2)oc1CC(F)(F)F` (stereo not shown) [Example 22, N-{4-[(2,2-difluorocyclopentyl)oxy]-3-fluorophenyl}-2-(pyrrolidin-1-yl)-5-(2,2,2-trifluoroethyl)oxazole-4-carboxamide], the EC50 at TRPML1 and in the experiment with TFEB was 0.01 to 1 µM each time.

With `O=C(Nc1ccc(N2CCCCC2)c(F)c1)c1nc(N2CCC3(C2)CC(F)(F)C3)oc1CC(F)(F)F` [Example 28, 2-(2,2-difluoro-6-azaspiro[3.4]octan-6-yl)-N-(3-fluoro-4-(piperidin-1-yl)phenyl)-5-(2,2,2-trifluoroethyl)oxazole-4-carboxamide], the EC50 at TRPML1 and in the experiment on TFEB was 1 to 10 µM each time.

Consider `O=C(Nc1ccc(N2CCCCC2)c(F)c1)c1nc(N2CC3(C2)CC(F)(F)C3)oc1CC(F)(F)F` [Example 30, 2-{6,6-difluoro-2-azaspiro[3.3]heptan-2-yl}-N-[3-fluoro-4-(piperidin-1-yl)phenyl]-5-(2,2,2-trifluoroethyl)oxazole-4-carboxamide], for which the EC50 on TRPML1 and with TFEB was 1 to 10 µM throughout.

In the case of `O=C(Nc1ccc(N2CCCCC2)c(F)c1)c1nc(N2CCC3(CCOC3)C2)oc1CC(F)(F)F` (stereo not shown) [Example 31, N-(3-fluoro-4-(piperidin-1-yl)phenyl)-2-(2-oxa-7-azaspiro[4.4]nonan-7-yl)-5-(2,2,2-trifluoroethyl)oxazole-4-carboxamide], the EC50 on TRPML1 and in the experiment with TFEB was 1 to 10 µM throughout.

Turning to `O=C(Nc1ccc(N2CCCCC2)c(F)c1)c1nc(N2CCCC2)oc1CC(F)(F)F` [Example 32, N-(3-fluoro-4-(piperidin-1-yl)phenyl)-2-(pyrrolidin-1-yl)-5-(2,2,2-trifluoroethyl)oxazole-4-carboxamide], the EC50 on TRPML1 and in the experiment with TFEB was 1 to 10 µM in each case.

On to `O=C(Nc1ccc(N2CCCCC2)c(F)c1)c1nc(N2CCC3(COC3)C2)oc1CC(F)(F)F` [Example 33, N-(3-fluoro-4-(piperidin-1-yl)phenyl)-2-(2-oxa-6-azaspiro[3.4]octan-6-yl)-5-(2,2,2-trifluoroethyl)oxazole-4-carboxamide], for which the EC50 at TRPML1 is 0.01 to 1 µM; in the experiment with TFEB, 1 to 10 µM.

As to `O=C(Nc1cc(F)c(OC2CC3C[C@H]3C2)c(F)c1)c1nc(N2CC3CCOC3C2)oc1CC(F)(F)F` (stereo partly drawn) [Example 36, N-(4-{cis-bicyclo[3.1.0]hexan-3-yloxy}-3,5-difluorophenyl)-2-{hexahydro-5H-furo[2,3-c]pyrrol-5-yl}-5-(2,2,2-trifluoroethyl)oxazole-4-carboxamide], the EC50 at TRPML1 and in the experiment with TFEB was 0.01 to 1 µM each time.

Regarding `O=C(Nc1cc(F)c(OC2CC3C[C@H]3C2)c(F)c1)c1nc(N2CCC3(CC3)C2)oc1CC(F)(F)F` (stereo partly shown) [Example 38], the EC50 on TRPML1 and in the experiment on TFEB was 0.01 to 1 µM each time.

Take `O=C(Nc1cc(F)c(O[C@@H]2C[C@@H]3C[C@@H]3C2)c(F)c1)c1nc(N2CCCC2)oc1CC(F)(F)F` [Example 39, N-(4-(cis-bicyclo[3.1.0]hexan-3-yloxy)-3,5-difluorophenyl)-2-(pyrrolidin-1-yl)-5-(2,2,2-trifluoroethyl)oxazole-4-carboxamide]: the EC50 at TRPML1 and with TFEB was 0.01 to 1 µM in each case.

On to `O=C(Nc1ccc(OC2CCOC2)c(F)c1)c1nc(N2CCCC2)oc1CC(F)(F)F` (stereo not shown) [Example 47, N-[3-fluoro-4-(oxolan-3-yloxy)phenyl]-2-(pyrrolidin-1-yl)-5-(2,2,2-trifluoroethyl)oxazol-4-carboxamide], for which the EC50 at TRPML1 and in the experiment on TFEB was 1 to 10 µM throughout.

As to `O=C(Nc1ccc(OC2CCCC2)c(F)c1)c1nc(N2CC3(C2)CC(F)(F)C3)oc1CC(F)(F)F` [Example 48, N-[4-(cyclopentyloxy)-3-fluorophenyl]-2-{6,6-difluoro-2-azaspiro[3.3]heptan-2-yl}-5-(2,2,2-trifluoroethyl)oxazole-4-carboxamide], the EC50 at TRPML1 is 1 to 10 µM; in the experiment with TFEB, 0.01 to 1 µM.

As to `CC1CCC(Oc2ccc(NC(=O)c3nc(N4CCCC4)oc3CC(F)(F)F)cc2F)C1` (stereo not shown) [Example 50, N-(3-fluoro-4-((3-methylcyclopentyl)oxy)phenyl)-2-(pyrrolidin-1-yl)-5-(2,2,2-trifluoroethyl)oxazole-4-carboxamide], the EC50 at TRPML1 and in the experiment with TFEB was 1 to 10 µM each time.

Take `CC1CCCN1c1nc(C(=O)Nc2ccc(OC3CCCC3)c(F)c2)c(CC(F)(F)F)o1` (stereo not shown) [Example 54, N-(4-(cyclopentyloxy)-3-fluorophenyl)-2-(2-methylpyrrolidin-1-yl)-5-(2,2,2-trifluoroethyl)oxazole-4-carboxamide]: the results for the EC50 at TRPML1 and in the experiment with TFEB were 1 to 10 µM and 10 to 100 µM, respectively.

For `CC1(C)CCCC1Oc1ccc(NC(=O)c2nc(N3CCCC3)oc2CC(F)(F)F)cc1F` (stereo not shown) [Example 55, N-(4-((2,2-dimethylcyclopentyl)oxy)-3-fluorophenyl)-2-(pyrrolidin-1-yl)-5-(2,2,2-trifluoroethyl)oxazole-4-carboxamide], the EC50 at TRPML1 and with TFEB was 1 to 10 µM in each case.

Regarding `O=C(Nc1ccc(OC2CCCC2)c(F)c1)c1nc(N2CCC3(COC3)C2)oc1CC(F)(F)F` [Example 64, N-(4-(cyclopentyloxy)-3-fluorophenyl)-2-(2-oxa-6-azaspiro[3.4]octan-6-yl)-5-(2,2,2-trifluoroethyl)oxazole-4-carboxamide], the EC50 on TRPML1 and in the experiment with TFEB was 1 to 10 µM each time.
